The text below walks through data of EP4606801A1, “FUSED HETEROCYCLIC COMPOUND AND USE THEREOF” (Chengdu Zenitar Biomedical Technology Co., Ltd., priority 2022, dated 2024).

One experiment concerns SUM14PT tumor cells. The experiment is described as follows: In-vivo pharmacodynamic study on subcutaneous xenograft tumor model of breast cancer SUM14PT. Particulars: Fig. 4. Also on record: species or system nude mice. The method, then: Experimental procedure: In this study, a mice model was established by subcutaneously inoculating SUM14PT tumor cells. Eight groups were divided for the experiment, with 6 mice in each group. The negative control group (Control) received normal saline at 0.2 mL per mice per administration, given orally once per day; the carboplatin control group (Carboplatin, Car) received 20 mg/kg at 0.2 mL per mice per administration, administered via intraperitoneal injection once every 7 days.

The target of the next experiment is T1, PARP2 (Homo sapiens, UniProt Q9UGN5).
T1 construct: purchased BPS 80502
T1 sequence (Q9UGN5 whole entry): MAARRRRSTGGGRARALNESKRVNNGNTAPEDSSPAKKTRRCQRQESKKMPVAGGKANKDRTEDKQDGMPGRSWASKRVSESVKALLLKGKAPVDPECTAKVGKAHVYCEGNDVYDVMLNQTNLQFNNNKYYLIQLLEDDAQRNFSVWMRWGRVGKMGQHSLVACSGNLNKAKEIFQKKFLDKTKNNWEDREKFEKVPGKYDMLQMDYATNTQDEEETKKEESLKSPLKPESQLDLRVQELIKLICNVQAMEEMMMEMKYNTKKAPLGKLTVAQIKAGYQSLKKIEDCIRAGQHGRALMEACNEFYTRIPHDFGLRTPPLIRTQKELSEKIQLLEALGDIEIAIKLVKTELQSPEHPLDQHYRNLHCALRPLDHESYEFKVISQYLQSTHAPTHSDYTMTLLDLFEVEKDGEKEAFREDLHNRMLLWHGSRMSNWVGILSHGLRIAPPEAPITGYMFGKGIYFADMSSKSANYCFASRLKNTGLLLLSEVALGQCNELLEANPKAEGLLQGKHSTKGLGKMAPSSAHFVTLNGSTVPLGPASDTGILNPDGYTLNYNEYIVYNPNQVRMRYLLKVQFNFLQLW
The experiment is described as follows: Determination of PARP2 enzyme (histone-coated plate, Biotin-NAD+). The class given is biochemical. As for the experimental part:
• 1.2.1 Preparation of buffer solution: PBST: 1x PBS, 0.05% Tween-20; blocking solution: 1x PBS, 0.05% Tween-20, 5% BSA; reaction buffer solution: 50 mM HEPES (pH 7.5), 0.002% Tween-20, 0.1% BSA, 100 mM NaCl, 2mM DTT. • 1.2.2 Coating: A 100 ng/mL Histone coating solution was prepared by using 1x PBS, 25 uL of the coating solution was transferred to a 384-well reaction plate, and the reaction plate was coated overnight at 4°C. • 1.2.3 Washing: After the coating was completed, the coating solution was discarded, and the reaction plate was washed with the PBST solution by means of transferring 50uL of the PBST solution to the 384-well reaction plate, letting it stand for 5 min, discarding the washing solution, refilling the reaction plate, and repeating the washing process 3 times. Finally, the reaction plate was tapped dry and the next step of blocking was proceeded with. • 1.2.4 Blocking: 50 uL of the blocking solution was transferred to the 384-well reaction plate and set for 1 h. • 1.2.5 Washing: After the blocking was completed, the blocking solution was discarded, the reaction plate was washed 3 times with the PBST solution according to the method in Step 2, and the reaction plate was tapped dry. • 1.2.6 A 25/10× PARP2 solution was prepared, then 10 µL of the PARP2 solution was transferred to the 384-well reaction plate.

The next experiment deals with gastric cancer PDX model. The experiment is described as follows: In-vivo pharmacodynamic study on PDX gastric cancer mice model. Particulars: Fig. 3. As for the experimental part: Experimental procedure: Tumor tissues from gastric cancer patients were used to establish a stable passaged tumor-bearing mice model. In this study, tumor fragments from mice that had been stably passaged three times were used for subcutaneous inoculation. Eight groups were divided for the experiment, with 6 mice in each group. The negative control group (Control) received normal saline at 0.2 mL per mice per administration, given orally once per day; the carboplatin control group (Carboplatin, Car) received 20 mg/kg at 0.2 mL per mice per administration, administered via intraperitoneal injection once every 7 days.

The target in a further experiment is T2, PARP5A (Homo sapiens, UniProt O95271).
T2 construct: purchased BPS 80504
T2 sequence (O95271 1001-1327): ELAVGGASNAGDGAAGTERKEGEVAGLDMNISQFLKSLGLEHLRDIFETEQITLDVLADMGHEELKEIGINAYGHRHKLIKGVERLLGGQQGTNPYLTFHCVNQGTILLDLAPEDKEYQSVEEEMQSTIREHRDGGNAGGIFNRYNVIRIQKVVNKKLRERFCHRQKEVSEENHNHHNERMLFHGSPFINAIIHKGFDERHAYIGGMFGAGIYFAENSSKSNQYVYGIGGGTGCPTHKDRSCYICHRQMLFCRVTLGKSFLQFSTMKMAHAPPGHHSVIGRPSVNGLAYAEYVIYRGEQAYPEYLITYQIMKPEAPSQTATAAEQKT
Kind of experiment: Determination of PARP5A enzyme (histone-coated plate, Biotin-NAD+). It counts as biochemical. The method, then:
• 1.3.1 Preparation of buffer solution solution: PBST: 1x PBS, 0.05% Tween-20; blocking solution: 1x PBS, 0.05% Tween-20, 5% BSA; reaction buffer solution: 50 mM HEPES (pH 7.5), 0.002% Tween-20, 0.1% BSA, 100 mM NaCl, 2mM DTT. • 1.3.2 Coating: A 100 ng/mL Histone coating solution was prepared by using 1x PBS, 25 uL of the coating solution was transferred to a 384-well reaction plate, and the reaction plate was coated overnight at 4°C. • 1.3.3 Washing: After the coating was completed, the coating solution was discarded, and the reaction plate was washed with the PBST solution by means of transferring 50uL of the PBST solution to the 384-well reaction plate, letting it stand for 5 min, discarding the washing solution, refilling the reaction plate with the PBST solution, and repeating the washing process 3 times. Finally, the reaction plate was tapped dry and the next step of blocking was proceeded with. • 1.3.4 Blocking: 50 uL of the blocking solution was transferred to the 384-well reaction plate and set for 1 h. • 1.3.5 Washing: After the blocking was completed, the blocking solution was discarded, the reaction plate was washed 3 times with the PBST solution according to the method in Step 2, and the reaction plate was tapped dry. • 1.3.6 A 25/10× PARP5A solution was prepared, then 10 µL of the PARP5A solution was transferred to the 384-well reaction plate. For negative control wells, 10 µL of the reaction buffer solution instead was transferred, resulting in the final concentration of PARP5A of 10 nM. • 1.3.7 A 2,000x compound was prepared, 50 nL of the compound was transferred to with echo, 19.95 uL of the reaction buffer solution was added into the compound, mix well, and 5 uL of the mixed compound was transferred to the 384-well reaction plate. • 1.3.8 A 25/10x Biotin-NAD+ solution was prepared, 10uL of the Biotin-NAD+ solution was transferred to the 384-well reaction plate, resulting in a final Biotin-NAD+ concentration of 2uM, and incubated at room temperature for 60 min. • 1.3.9 Washing: After the reaction was completed, the reaction liquid was discarded. The reaction plate was washed 3 times with the PBST solution according to the method in Step 2, and the reaction plate was tapped dry. • 1.3.10 A Stre-HRP solution was prepared by means of diluting it with the blocking solution, 25uL of the Stre-HRP solution was transferred to the reaction plate, and incubated at room temperature for 1 h, resulting the final concentration of Stre-HRP of 0.1 µg/mL. • 1.3.11 Washing: The Stre-HRP solution was discarded, the reaction plate was washed 3 times with the PBST solution according to the method in Step 2, and the reaction plate was tapped dry. • 1.3.12 Color developing: Femto-ECL Substrate A, Femto-ECL Substrate B, and QuantaRed ADHP were mixed in a 50:50:1 ratio.

pIC50: −log10 of the molar value.

Consider `[2H]C([2H])([2H])C([2H])([2H])c1cc2ncc(CN3CC=C(c4ccc(C(=O)NC)nc4)CC3)cc2[nH]c1=O` [Compound 6, 1'-((7-(ethyl-d5)-6-oxo-5,6-dihydro-1,5-naphthyridin-3-yl)methyl)-N-methyl-1',2',3',6'-tetrahy dro-[3,4'-bipyridine]-6-carboxamide], for which, in the experiment on SUM14PT tumor cells (1 mg/kg orally once daily + carboplatin, versus Olaparib 100 mg/kg + carboplatin), the “therapeutic efficacy in combination with carboplatin” value is reported as “better therapeutic efficacy than Olaparib”. Also, the “anti-tumor efficacy, monotherapy” value in the experiment on SUM14PT tumor cells (0.3 and 1 mg/kg orally once daily, versus Olaparib 100 mg/kg orally once daily) is given as “better anti-tumor efficacy compared to Olaparib”. Besides, the pIC50 against PARP2 and against PARP5A was less than 6.00 each time. For the same compound, in the experiment on gastric cancer PDX model (3 mg/kg p.o once per day combined with carboplatin 20 mg/kg i.p once per 7 days), the “tumor growth in gastric cancer PDX model” value is reported as “significantly inhibit tumor growth”. In addition, in the experiment on gastric cancer PDX model (0.3, 1, 3 mg/kg p.o once per day combined with carboplatin 20 mg/kg i.p once per 7 days), the “inhibitory effect on the gastric cancer PDX model” value was “dose-dependent inhibitory effect”.
